{"source": "patent US8628771B2", "about": "“CA IX-specific inhibitors” (Institute of Virology Slovak Academy of Sciences, priority 2002, dated 2014)", "key": {"[1]": {"settings": "from reference [58]; cited from earlier work"}, "human red cells [2]": {"tested_on": "human red cells", "settings": "pH 7.4"}, "bCA IV": {"target": "T1, bCA IV (Bos taurus, UniProt Q95323)", "T1 construct": "CA IV was isolated from bovine lung microsomes as described by Maren et al; from tissue; host or cells: bovine lung microsomes", "T1 sequence (Q95323 19-284)": "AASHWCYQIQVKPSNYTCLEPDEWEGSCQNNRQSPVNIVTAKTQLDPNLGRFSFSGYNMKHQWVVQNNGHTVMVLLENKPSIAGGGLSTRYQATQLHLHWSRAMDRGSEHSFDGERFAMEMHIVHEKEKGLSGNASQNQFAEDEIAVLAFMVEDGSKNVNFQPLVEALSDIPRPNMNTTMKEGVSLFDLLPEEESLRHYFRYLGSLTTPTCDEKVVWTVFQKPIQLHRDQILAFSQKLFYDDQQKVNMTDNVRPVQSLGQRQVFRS", "test": "CA esterase activity assay, isozyme bCA IV", "format": "biochemical, bovine"}, "hCA IX": {"target": "hCA IX (Homo sapiens, UniProt Q16790)", "test": "CA CO2 hydrase activity assay, tumor-associated isozyme hCA IX", "procedure": "An SX.18MV-R Applied Photophysics stopped-flow instrument has been used for assaying the CA CO2 hydration activity assays [44]. […] Inhibitor and enzyme solutions were preincubated together for 10 min at room temperature prior to assay, in order to allow for the formation of the E-I complex."}, "SiHa cells [3]": {"tested_on": "SiHa cells", "test": "Extracellular pH (pHe) of sulfonamide-treated SiHa cells", "format": "cell-based, human", "settings": "hypoxic SiHa cells, 1 mM, 48 hours", "method": "(§1) To maintain the standard conditions, the cells were always plated in 3 ml of culture medium at a density of 0.8-1×10^6 per 6 cm dish 24 hours before the transfer to hypoxia (2% O2 and 5% CO2 balanced with N2) generated in a Napco 7000 incubator. Parallel normoxic dishes were incubated in air with 5% CO2.\n(§2) Compound 6 sulfonamide [4-(2-aminoethyl)-benzenesulfonamide] was from Sigma-Aldrich. […] The sulfonamides were dissolved in PBS with 20% DMSO at 100 mM concentration and diluted in a culture medium to a required final concentration just before their addition to cells. The cells were incubated for 48 hours in hypoxia and normoxia, respectively, the pH of the culture medium was measured and the binding of the FITC-labeled Compound 92 to living cells, washed three times with PBS, was viewed by a Nikon E400 epifluorescence microscope."}, "HeLa cells [4]": {"tested_on": "HeLa cells", "test": "Extracellular pH (pHe) of sulfonamide-treated HeLa cells", "format": "cell-based, human", "settings": "hypoxic HeLa cells, 1 mM, 48 hours", "method": "as §1, §2"}, "HeLa cells [5]": {"tested_on": "HeLa cells", "test": "Binding of FITC-labeled sulfonamide to HeLa cells (fluorescence microscopy)", "format": "cell-based, human", "settings": "hypoxia versus normoxia, 48 hour incubation"}, "MDCK-CA IX cells [6]": {"tested_on": "MDCK-CA IX cells", "test": "Binding of FITC-labeled sulfonamide to MDCK-CA IX cells (fluorescence microscopy)", "format": "cell-based, canine", "settings": "48 hours", "method": "as §1, §2"}, "SiHa cells [7]": {"tested_on": "SiHa cells", "test": "Binding of FITC-labeled sulfonamide to SiHa cells (fluorescence microscopy)", "format": "cell-based, human", "settings": "hypoxia versus normoxia, 48 hour incubation"}, "MDCK-CA IX cells [8]": {"tested_on": "MDCK-CA IX cells", "test": "Extracellular pH (pHe) of sulfonamide-treated MDCK-CA IX cells", "format": "cell-based, canine", "settings": "48 hours; for effect on extracellular acidification: hypoxia (2% O2); for effect on the normoxic pHe: normoxia", "method": "as §1, §2"}, "hCA II": {"target": "T2, hCA II (Homo sapiens, UniProt P00918)", "T2 construct": "made in house; host or cells: Escherichia coli BL21 (DE3)", "test": "CA esterase activity assay, isozyme hCA II", "format": "biochemical", "settings": "Table 2; human (cloned) isozymes; read-out: KI hCA II", "procedure": "Human CA I and CA II cDNAs were expressed in Escherichia coli strain BL21 (DE3) from the plasmids pACA/hCA I and pACA/hCA II described by Lindskog's group [54].\nNon-enzymatic hydrolysis rates were always subtracted from the observed rates. […] Inhibitor and enzyme solutions were preincubated together for 10 min at room temperature prior to assay, in order to allow for the formation of the E-I complex. The inhibition constant KI was determined as described in references [44, 76]."}, "hCA I": {"target": "T3, hCA I (Homo sapiens, UniProt P00915)", "T3 construct": "made in house; host or cells: Escherichia coli BL21 (DE3)", "T3 sequence (P00915 whole entry)": "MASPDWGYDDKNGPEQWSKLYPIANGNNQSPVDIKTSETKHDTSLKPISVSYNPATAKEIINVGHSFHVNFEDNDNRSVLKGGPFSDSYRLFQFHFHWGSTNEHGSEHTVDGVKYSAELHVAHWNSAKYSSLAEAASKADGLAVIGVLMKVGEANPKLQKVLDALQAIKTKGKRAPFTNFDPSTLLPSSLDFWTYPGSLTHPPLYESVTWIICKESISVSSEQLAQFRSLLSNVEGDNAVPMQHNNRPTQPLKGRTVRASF", "test": "CA esterase activity assay, isozyme hCA I", "format": "biochemical", "settings": "Table 2; human (cloned) isozymes; read-out: KI hCA I"}, "human red cells [9]": {"tested_on": "human red cells", "test": "Membrane permeance assay: ex vivo penetration through red blood cells", "settings": "pH 7.4; for [sulfonamide] in red blood cells, HPLC: HPLC method; for [sulfonamide] in red blood cells, ES: electronic spectroscopic method; for [sulfonamide] in red blood cells, EI: enzymatic method"}}, "note": "Values joined by “and” are separate entries in the source; they are usually repeats but may differ in a detail not shown here. Identical values can stand only once. Like-named read-outs stand apart in the source and are kept apart here.", "data": [{"compound": "Benzolamide [reference compound]", "values": [{"measurement": "pKa for the second sulfonamido group", "setting": "[1]", "result": 3.2}, {"measurement": "incubation period to saturation of hCA I and hCA II in erythrocytes with inhibitor", "setting": "human red cells [2]", "result": 60, "unit": "min"}]}, {"compound": "Nc1ccc(S(=O)(=O)Nc2nnc(S(N)(=O)=O)s2)cc1", "note": "[Compound 15, 5-(4-aminobenzenesulfonylamino)-1,3,4-thiadiazole-2-sulfonamide]", "values": [{"measurement": "Ki", "setting": "bCA IV", "result": "~5", "unit": "nM"}, {"measurement": "Ki", "setting": "bCA IV; read-out: KI bCA IV", "result": "5 nM and 5.1 nM"}, {"measurement": "pKa for the second sulfonamido group", "setting": "[1]", "result": 3.2}, {"measurement": "incubation period to saturation of hCA I and hCA II in erythrocytes with inhibitor", "setting": "human red cells [2]; human, 2 mM", "result": 60, "unit": "min"}, {"measurement": "[sulfonamide] in red blood cells, EI", "setting": "human red cells [2]; human, 30 min, 2 mM", "result": 122, "unit": "µM"}, {"measurement": "[sulfonamide] in red blood cells, ES", "setting": "human red cells [2]; human, 30 min, 2 mM", "result": 127, "unit": "µM"}, {"measurement": "[sulfonamide] in red blood cells, HPLC", "setting": "human red cells [2]; human, 30 min, 2 mM", "result": 125, "unit": "µM"}, {"measurement": "[sulfonamide] in red blood cells, EI", "setting": "human red cells [2]; human, 60 min, 2 mM", "result": 158, "unit": "µM"}, {"measurement": "[sulfonamide] in red blood cells, ES", "setting": "human red cells [2]; human, 60 min, 2 mM", "result": 156, "unit": "µM"}, {"measurement": "[sulfonamide] in red blood cells, HPLC", "setting": "human red cells [2]; human, 60 min, 2 mM", "result": 154, "unit": "µM"}, {"measurement": "Ki", "setting": "hCA IX; KI against CA IX", "result": "14 to 50", "unit": "nM"}, {"measurement": "Ki", "setting": "hCA IX; read-out: KI against CA IX", "result": 38, "unit": "nM"}, {"measurement": "Ki", "setting": "hCA IX; read-out: KI hCA IX", "result": 38, "unit": "nM"}]}, {"compound": "NS(=O)(=O)c1ccc(CNC(=S)Nc2ccc3c(c2)C(=O)OC32c3ccc(O)cc3Oc3cc(O)ccc32)cc1", "note": "[Compound 92]", "values": [{"measurement": "effect on acidosis (pHe)", "setting": "SiHa cells [3]", "result": "partially reduced"}, {"measurement": "effect on acidosis (pHe)", "setting": "HeLa cells [4]", "result": "partially reduced"}, {"measurement": "accumulation of FITC-labeled compound in cells", "setting": "HeLa cells [5]", "result": "accumulated in the hypoxic HeLa and SiHa cells"}, {"measurement": "detection of FITC-labeled compound in cells", "setting": "MDCK-CA IX cells [6]; hypoxic MDCK-CA IX cells", "result": "detected only in hypoxic MDCK-CA IX cells"}, {"measurement": "detection of FITC-labeled compound in cells", "setting": "MDCK-CA IX cells [6]; normoxic MDCK-CA IX cells and mock-transfected controls", "result": "absent"}, {"measurement": "accumulation of FITC-labeled compound in cells", "setting": "SiHa cells [7]", "result": "accumulated in the hypoxic HeLa and SiHa cells"}, {"measurement": "effect on extracellular acidification", "setting": "MDCK-CA IX cells [8]", "result": "able to reduce the extracellular acidification"}, {"measurement": "effect on the normoxic pHe", "setting": "MDCK-CA IX cells [8]", "result": "negligible"}]}, {"compound": "Cc1cc(C)[n+](Cc2ccc(S(N)(=O)=O)cc2)c(C)c1", "note": "[Compound 39]", "values": [{"measurement": "Ki", "setting": "hCA II", "result": 50, "unit": "nM"}, {"measurement": "Ki", "setting": "bCA IV; Table 2, from bovine lung microsomes, read-out: KI bCA IV", "result": 92, "unit": "nM"}, {"measurement": "effect on extracellular acidification", "setting": "MDCK-CA IX cells [8]", "result": "able to reduce the extracellular acidification"}, {"measurement": "effect on the normoxic pHe", "setting": "MDCK-CA IX cells [8]", "result": "negligible"}, {"measurement": "Ki", "setting": "hCA I", "result": 7000, "unit": "nM"}, {"measurement": "Ki", "setting": "hCA IX; read-out: KI hCA IX, Table 2, catalytic domain of the human, cloned isozyme", "result": 38, "unit": "nM"}]}, {"compound": "CC(=O)/N=c1/sc(S(N)(=O)=O)nn1C", "note": "[MZA, methazolamide]", "values": [{"measurement": "[sulfonamide] in red blood cells, HPLC", "setting": "human red cells [9]; t = 30 min, 2 mM sulfonamide in 5 mM Tris buffer", "result": 170, "unit": "µM"}, {"measurement": "[sulfonamide] in red blood cells, ES", "setting": "human red cells [9]; t = 30 min, 2 mM sulfonamide", "result": 169, "unit": "µM"}, {"measurement": "[sulfonamide] in red blood cells, EI", "setting": "human red cells [9]; t = 30 min, 2 mM sulfonamide", "result": 165, "unit": "µM"}, {"measurement": "[sulfonamide] in red blood cells, HPLC", "setting": "human red cells [9]; t = 60 min, 2 mM sulfonamide", "result": 168, "unit": "µM"}, {"measurement": "[sulfonamide] in red blood cells, ES", "setting": "human red cells [9]; t = 60 min, 2 mM sulfonamide", "result": 168, "unit": "µM"}, {"measurement": "[sulfonamide] in red blood cells, EI", "setting": "human red cells [9]; t = 60 min, 2 mM sulfonamide", "result": 167, "unit": "µM"}]}]}
